For one test, the target named is CLK1 (Homo sapiens, UniProt P49759). Details: method as in Funnell et al, 2017. The conditions noted are these: enzymatic assay; ref Funnell et al, 2017; read-out: IC50 (nmol/L) CLK1; cited from earlier work.
The next test has as its target T1, DYRK1A (Homo sapiens, UniProt Q13627).
T1 construct: purchased DiscoverX Corporation (Fremont, CA, USA)
Details: method as in Funnell et al, 2017. The conditions noted are these: enzymatic assay; ref Funnell et al, 2017; read-out: IC50 (nmol/L) DYRK1A; cited from earlier work.

Test [1] deals with MYC-inducible SK-MEL-28 cells. Description: Growth inhibition in MYC-inducible SK-MEL-28 cells. In kind it is cell-based. The note with it: Homo sapiens, read-out: IC50 (nmol/L) (95% CI). As to the method:
To obtain an MYC‐inducible cell line, SK‐MEL‐28 cells were engineered via stable lentiviral transduction to express an empty pTRIPZ vector (Open Biosystems/GE Healthcare Dharmacon Inc., Lafayette, CO, USA) or a Tet‐inducible promoter‐driven MYC gene. Infected cells were selected with geneticin for 4 days, left to recover for 24 h, and treated with 0.5 μg/ml Dox (Sigma‐Aldrich, St. Louis, MO, USA). U2OS cells were similarly engineered to express an empty pBABE vector (Cell Biolabs, Inc., San Diego, CA, USA) or a MYC‐estrogen receptor (MYC‐ER) transgene via 3 days of puromycin selection followed by treatment with 0.5 μmol/l tamoxifen (Sigma‐Aldrich).
Silencer Select Pre-designed siRNAs purchased from Ambion (Thermo Fisher
Scientific) were used. The siRNA ID# and sequence are shown below: […]
Cell proliferation assay, Caspase-3/7 assay
Cell proliferation was measured using CellTiter-Glo luminescent cell viability
assay (Promega, Fitchburg, WI, U.S.A.). Caspase-3/7 activity was measured using
Caspase-Glo 3/7 Assay Systems (Promega). Luminescence of each well was measured
using ARVO Light (PerkinElmer Inc., Waltham, MA, U.S.A.). The IC50 value and 95%
confidential intervals were estimated using GraphPad Prism 5 (GraphPad Software,
Inc., La Jolla, CA, U.S.A.). […]

The subject of another test is HCT116 cells. Description: Modulation of the 125 T-025-dependent skipped exons (RNA-Seq, MISO). The note with it: |ΔPSI| > 0.4, T3 AS events from Funnell et al, 2017. In kind it is cell-based. As to the method: The RNA‐Seq was performed at Takara Bio Inc. (Shiga, Japan) or Macrogen, Inc. (Seoul, South Korea) by using HiSeq2000 or HiSeq4000 (Illumina Inc., San Diego, CA, USA). Splicing bioinformatics analysis using MISO and pathway analysis using Cytoscape (Shannon et al, 2003) were performed as previously described (Funnell et al, 2017). Briefly, the BAM alignment files produced by TopHat and the files for AS events (for hg19) provided by MISO were used as inputs. […] For clustering, we used 1,320 splicing events with ΔPSI > 0.4, the BF > 20, and SD of PSI for each splicing event > 0.2. Hierarchical clustering was performed using heatmap3 from the R package.

The next test concerns the target DYRK1B (Homo sapiens, UniProt Q9Y463). Details: method as in Funnell et al, 2017. The conditions noted are these: enzymatic assay; ref Funnell et al, 2017; read-out: IC50 (nmol/L) DYRK1B; cited from earlier work.

Read-outs that look alike come from different tables or passages of the source.

The values below come from article PMC5991599, “Anti‐tumor efficacy of a novel CLK inhibitor via targeting RNA splicing and MYC‐dependent vulnerability” (EMBO Molecular Medicine, 2018).

Sequence of CLK1 (P49759 whole entry): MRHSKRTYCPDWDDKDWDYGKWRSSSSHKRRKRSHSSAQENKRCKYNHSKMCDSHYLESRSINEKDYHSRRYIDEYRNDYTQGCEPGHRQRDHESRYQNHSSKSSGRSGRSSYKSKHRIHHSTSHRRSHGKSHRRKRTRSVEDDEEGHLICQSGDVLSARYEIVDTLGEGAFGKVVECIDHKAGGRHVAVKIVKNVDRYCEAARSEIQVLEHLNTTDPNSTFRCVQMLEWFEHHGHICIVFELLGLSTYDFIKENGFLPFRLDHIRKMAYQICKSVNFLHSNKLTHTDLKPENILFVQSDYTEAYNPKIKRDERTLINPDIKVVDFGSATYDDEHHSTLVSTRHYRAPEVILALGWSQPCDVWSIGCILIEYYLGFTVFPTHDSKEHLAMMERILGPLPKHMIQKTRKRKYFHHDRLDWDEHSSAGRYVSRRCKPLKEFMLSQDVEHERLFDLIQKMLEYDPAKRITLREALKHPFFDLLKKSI
Sequence of DYRK1B (Q9Y463 whole entry): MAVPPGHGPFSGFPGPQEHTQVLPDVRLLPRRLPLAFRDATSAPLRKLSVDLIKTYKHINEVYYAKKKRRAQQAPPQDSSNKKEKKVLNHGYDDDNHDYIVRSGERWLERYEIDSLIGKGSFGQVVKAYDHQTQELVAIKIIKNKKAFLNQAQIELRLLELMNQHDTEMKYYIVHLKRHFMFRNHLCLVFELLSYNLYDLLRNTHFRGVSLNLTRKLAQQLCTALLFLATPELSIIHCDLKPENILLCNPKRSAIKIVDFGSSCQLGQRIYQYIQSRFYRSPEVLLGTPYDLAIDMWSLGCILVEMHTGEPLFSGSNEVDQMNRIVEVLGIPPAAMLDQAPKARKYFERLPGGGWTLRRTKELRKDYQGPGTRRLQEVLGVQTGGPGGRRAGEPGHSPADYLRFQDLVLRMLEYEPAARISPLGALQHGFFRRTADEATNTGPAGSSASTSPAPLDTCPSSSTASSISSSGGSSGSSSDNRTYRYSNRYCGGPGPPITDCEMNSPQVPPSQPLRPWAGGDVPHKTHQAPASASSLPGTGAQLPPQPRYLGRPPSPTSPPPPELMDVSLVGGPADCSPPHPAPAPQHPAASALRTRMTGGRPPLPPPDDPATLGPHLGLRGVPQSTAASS

Consider `CN1CCN(C(=O)C(C)(C)c2ccc(C(=O)Nc3cn4cc(-c5ccncc5)ccc4n3)cc2)CC1` [T3], for which the IC50 on CLK1 was 0.63 nmol/L; on DYRK1A, 230 nmol/L; in test [1] (SK-MEL-28, 72 h, myc - Dox), 471 nmol/L; in test [1] (SK-MEL-28, 72 h, vector - Dox), 459 nmol/L; in test [1] (SK-MEL-28, myc + Dox (48 h pretreatment), 72 h), 294 nmol/L; in test [1] (SK-MEL-28, vector + Dox (48 h pretreatment), 72 h) it was 471 nmol/L. For the same compound, the IC50 on DYRK1B is 260 nmol/L. The “share of the 125 T-025-dependent SEs also changed” value in the test on HCT116 cells (T3 at 500 nmol/l) amounted to 58.4%; with HCT116 cells (T3 at 1,000 nmol/l) it was 77.6%.
